Measurements: ChEMBL document CHEMBL5113520, “From a Cone Snail Toxin to a Competitive MC4R Antagonist” (J Med Chem, 2022)
Active and inactive are the calls of the source. No cut-off for these calls is given here. Where a SMILES comes first, the peptide text is derived from it. Bridges are numbered along the chain shown (N, C = ends).

Key:
[1] = target: Melanocyte-stimulating hormone receptor (Homo sapiens, UniProt Q01726); assay: Displacement of [125I]-NDP-alpha-MSH from human MC1R expressed in CHO cells by Topcount beta counter analysis; format: cell-based
[2] = target: Melanocortin receptor 3 (Homo sapiens, UniProt P41968); assay: Displacement of [125I]-NDP-alpha-MSH from human MC3R expressed in HEK293 cells by Topcount beta counter analysis; format: cell-based
[3] = target: T1, Melanocortin receptor 4 (Homo sapiens, UniProt P32245); assay: Displacement of [125I]-NDP-alpha-MSH from human MC4R expressed in CHO cells by Topcount beta counter analysis; format: cell-based
[4] = target: Melanocortin receptor 5 (Homo sapiens, UniProt P33032); assay: Displacement of [125I]-NDP-alpha-MSH from human MC5R expressed in CHO cells by Topcount beta counter analysis; format: cell-based
[5] = organism: Homo sapiens; assay: Selectivity ratio of Ki for human MC1R expressed in CHO cells to Ki for human MC4R expressed in CHO cells; format: cell-based
[6] = organism: Homo sapiens; assay: Selectivity ratio of Ki for human MC3R expressed in HEK293 cells to Ki for human MC4R expressed in CHO cells; format: cell-based
[7] = organism: Homo sapiens; assay: Selectivity ratio of Ki for human […] expressed in CHO cells to Ki for human MC4R expressed in CHO cells; format: cell-based
[8] = target: T2, Type-1 angiotensin II receptor (Homo sapiens) (UniProt P30556); assay: Inhibition of human AT1R expressed in CHO cells at 50 uM by Topcount beta counter analysis relative to control; format: cell-based
T2 sequence (whole entry): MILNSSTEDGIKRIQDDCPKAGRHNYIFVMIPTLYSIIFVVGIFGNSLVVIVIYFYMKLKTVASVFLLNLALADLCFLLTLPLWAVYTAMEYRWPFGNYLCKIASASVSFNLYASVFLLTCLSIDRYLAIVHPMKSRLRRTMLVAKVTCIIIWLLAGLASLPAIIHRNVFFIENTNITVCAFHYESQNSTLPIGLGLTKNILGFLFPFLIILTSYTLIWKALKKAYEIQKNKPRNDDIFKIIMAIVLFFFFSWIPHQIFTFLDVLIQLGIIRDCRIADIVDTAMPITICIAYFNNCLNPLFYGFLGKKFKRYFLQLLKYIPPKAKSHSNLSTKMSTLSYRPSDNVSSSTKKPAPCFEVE

[9] = target: T1, Melanocortin receptor 4; assay: Antagonist activity at human MC4R in HEK293SL cells assessed as Gs activation incubated for 30 mins in presence of alpha-MSH by BRET assay; format: functional, cell-based; settings: filed as antagonist
[10] = target: T1, Melanocortin receptor 4; assay: Antagonist activity at human MC4R in HEK293SL cells assessed as Gs activation incubated for 30 mins in presence of NDP-alpha-MSH by BRET assay; format: functional, cell-based; settings: filed as antagonist
[11] = target: T1, Melanocortin receptor 4; assay: Antagonist activity at human MC4R in HEK293SL cells assessed as G15 activation incubated for 30 mins in presence of alpha-MSH by BRET assay; format: functional, cell-based; settings: filed as antagonist
[12] = target: T1, Melanocortin receptor 4; assay: Antagonist activity at human MC4R in HEK293SL cells assessed as G15 activation incubated for 30 mins in presence of NDP-alpha-MSH by BRET assay; format: functional, cell-based; settings: filed as antagonist
[13] = target: T1, Melanocortin receptor 4; assay: Antagonist activity at human MC4R in HEK293SL cells assessed as beta-arrestin2 activation incubated for 30 mins in presence of alpha-MSH by BRET assay; format: functional, cell-based; settings: filed as antagonist
[14] = target: T1, Melanocortin receptor 4; assay: Antagonist activity at human MC4R in HEK293SL cells assessed as beta-arrestin2 activation incubated for 30 mins in presence of NDP-alpha-MSH by BRET assay; format: functional, cell-based; settings: filed as antagonist
[15] = target: T1, Melanocortin receptor 4; assay: Antagonist activity at human MC4R in HEK293SL cells assessed as Gs activation at 30 uM incubated for 30 mins in presence of alpha-MSH by BRET assay; format: functional, cell-based; settings: filed as antagonist

Chain of Melanocyte-stimulating hormone receptor (Q01726 whole entry): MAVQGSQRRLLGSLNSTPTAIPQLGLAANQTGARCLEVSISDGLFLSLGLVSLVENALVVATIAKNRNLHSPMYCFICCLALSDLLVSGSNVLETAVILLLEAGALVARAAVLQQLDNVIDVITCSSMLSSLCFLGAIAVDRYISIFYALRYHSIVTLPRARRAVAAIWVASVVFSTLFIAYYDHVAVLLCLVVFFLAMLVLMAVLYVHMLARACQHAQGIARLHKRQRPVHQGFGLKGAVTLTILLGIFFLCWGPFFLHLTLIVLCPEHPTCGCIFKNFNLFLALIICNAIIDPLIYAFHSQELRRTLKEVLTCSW
T1 sequence (P32245 whole entry): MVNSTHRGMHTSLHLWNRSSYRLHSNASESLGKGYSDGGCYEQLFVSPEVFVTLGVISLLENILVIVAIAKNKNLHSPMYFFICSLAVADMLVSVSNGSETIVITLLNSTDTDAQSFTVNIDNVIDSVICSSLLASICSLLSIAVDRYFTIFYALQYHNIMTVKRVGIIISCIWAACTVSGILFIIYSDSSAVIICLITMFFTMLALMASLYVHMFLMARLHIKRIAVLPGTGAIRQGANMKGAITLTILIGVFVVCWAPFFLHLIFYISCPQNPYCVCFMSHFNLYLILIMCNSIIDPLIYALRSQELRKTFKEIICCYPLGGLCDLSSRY
Chain of Melanocortin receptor 3 (P41968 whole entry): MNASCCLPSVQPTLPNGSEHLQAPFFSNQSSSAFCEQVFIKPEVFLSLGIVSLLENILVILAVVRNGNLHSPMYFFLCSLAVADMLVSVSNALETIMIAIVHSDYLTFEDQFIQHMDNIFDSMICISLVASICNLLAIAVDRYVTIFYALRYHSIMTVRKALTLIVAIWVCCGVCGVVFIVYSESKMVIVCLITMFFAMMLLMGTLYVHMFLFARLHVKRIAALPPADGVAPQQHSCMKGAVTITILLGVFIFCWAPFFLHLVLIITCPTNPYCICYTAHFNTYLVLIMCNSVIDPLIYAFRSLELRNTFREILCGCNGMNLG
Chain of Melanocortin receptor 5 (P33032 whole entry): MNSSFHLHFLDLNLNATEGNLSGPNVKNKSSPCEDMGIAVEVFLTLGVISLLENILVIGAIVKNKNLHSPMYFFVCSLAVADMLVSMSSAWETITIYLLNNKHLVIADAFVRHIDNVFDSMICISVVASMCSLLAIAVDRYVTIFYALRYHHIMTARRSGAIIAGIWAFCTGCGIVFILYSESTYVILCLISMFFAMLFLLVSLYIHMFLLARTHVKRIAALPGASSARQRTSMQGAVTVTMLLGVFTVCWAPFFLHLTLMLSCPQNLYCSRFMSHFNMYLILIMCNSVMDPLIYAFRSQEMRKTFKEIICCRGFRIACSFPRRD

Compound	Ki ([1]; read-out: pKi (converted)) [µM]	Ki ([2]; read-out: pKi (converted)) [µM]	Ki ([3]; read-out: pKi (converted)) [µM]	Ki ([4]; read-out: pKi (converted)) [µM]	Ki ([1]; read-out: Ki) [µM]	Ki ([2]; read-out: Ki) [µM]	Ki ([3]; read-out: Ki) [µM]	Ki ([4]; read-out: Ki) [µM]	Ratio Ki [5]	Ratio Ki [6]	Ratio Ki [7]	inhibition [8] [%]	Kb [9] [µM]	Kb [10] [µM]	Kb [11] [µM]	Kb [12] [µM]	Kb [13] [µM]	Kb [14] [µM]	Activity [15]
CC(C)C[C@H](NC(=O)[C@H](CCCCN)NC(=O)[C@H](Cc1ccccc1)NC(=O)[C@H](CCC(N)=O)NC(=O)[C@@H]1CSSC[C@H](NC(=O)[C@H](Cc2ccc(O)cc2)NC(=O)[C@H](Cc2c[nH]cn2)NC(=O)[C@H](Cc2ccccc2)NC(=O)[C@@H](N)CC(C)C)C(=O)N[C@@H](CCC(N)=O)C(=O)N[C@@H](C)C(=O)N[C@@H](CCC(N)=O)C(=O)N[C@@H](C)C(=O)N2CCC[C@H]2C(=O)N2CCC[C@H]2C(=O)NCC(=O)N[C@@H](Cc2ccccc2)C(=O)N[C@@H](CCCCN)C(=O)NCC(=O)N[C@@H](CCCCN)C(=O)N[C@@H](Cc2ccccc2)C(=O)N1)C(=O)N[C@@H](CCCNC(=N)N)C(=O)N1CCC[C@H]1C(=O)N1CCC[C@H]1C(=O)O (H-LFHYCQAQAPPGFKGKFCQFKLRPP-OH; disulfide 5-18)	0.912	0.17	0.117	0.195	–	–	–	–	–	–	–	–	–	–	–	–	–	–	–
H-LFHYQQKQKPPGFKGKFQQFKLRPP-OH	0.182	0.0389	0.0135	0.182	0.197	0.041	0.015	0.195	13	3	13	77	28	32.3	6	3	33	3.8	Active
CC(C)C[C@H](NC(=O)[C@H](CCCCN)NC(=O)[C@H](Cc1ccccc1)NC(=O)[C@H](CCC(N)=O)NC(=O)[C@@H]1CSSC[C@H](NC(=O)[C@H](Cc2ccc(O)cc2)NC(=O)[C@H](Cc2c[nH]cn2)NC(=O)[C@H](Cc2ccccc2)NC(=O)[C@@H](N)CC(C)C)C(=O)N[C@@H](CCC(N)=O)C(=O)N[C@@H](C(C)C)C(=O)N[C@@H](CCC(N)=O)C(=O)N[C@@H](C(C)C)C(=O)N2CCC[C@H]2C(=O)N2CCC[C@H]2C(=O)NCC(=O)N[C@@H](Cc2ccccc2)C(=O)N[C@@H](CCCCN)C(=O)NCC(=O)N[C@@H](CCCCN)C(=O)N[C@@H](Cc2ccccc2)C(=O)N1)C(=O)N[C@@H](CCCNC(=N)N)C(=O)N1CCC[C@H]1C(=O)N1CCC[C@H]1C(=O)O (H-LFHYCQVQVPPGFKGKFCQFKLRPP-OH; disulfide 5-18)	0.724	0.282	0.0603	0.224	–	–	–	–	–	–	–	–	–	–	–	–	–	–	–
CC(C)C[C@H](NC(=O)[C@H](CCCCN)NC(=O)[C@H](Cc1ccccc1)NC(=O)[C@H](CCC(N)=O)NC(=O)[C@@H]1CSSC[C@H](NC(=O)[C@@H](Cc2ccc(O)cc2)NC(=O)[C@H](Cc2c[nH]cn2)NC(=O)[C@H](Cc2ccccc2)NC(=O)[C@@H](N)CC(C)C)C(=O)N[C@@H](CCC(N)=O)C(=O)N[C@@H](CCCCN)C(=O)N[C@@H](CCC(N)=O)C(=O)N[C@@H](CCCCN)C(=O)N2CCC[C@H]2C(=O)N2CCC[C@H]2C(=O)NCC(=O)N[C@@H](Cc2ccccc2)C(=O)N[C@@H](CCCCN)C(=O)NCC(=O)N[C@@H](CCCCN)C(=O)N[C@@H](Cc2ccccc2)C(=O)N1)C(=O)N[C@@H](CCCNC(=N)N)C(=O)N1CCC[C@H]1C(=O)N1CCC[C@H]1C(=O)O	0.0851	0.0309	0.00692	0.0257	–	–	–	–	–	–	–	–	–	–	–	–	–	–	–
